SMILES strings stand for the structures.

For the experiment, the target named is PI3Kα (Homo sapiens, UniProt P42336). In words: ADP-Glo Kinase Assay. Also on record: purchased Merck Millipore. The class given is biochemical. The protocol: The potency and selectivity of CPL302-253 against different isotypes of class I PI3K were assessed using ADP-Glo Kinase Assay (Promega) according to manufacturer’s protocol. PI3Kα, PI3Kβ, PI3Kδ, PI3Kγ were purchased from Merck Millipore. The inhibition of examined kinases activity was evaluated by measuring their ability to converse ATP to ADP in the presence of decreasing doses of tested compound (from 400 μM to 0,00004 μM). Kinases were mixed with 1 mM PIP2:PS substrate (Phosphoinositol-4,5-bisphosphate (PIP2) lipid vesicles with phosphoserine (PS), Thermofisher Scientific) and 30 μM ATP in an assay buffer (50 mM HEPES pH 7.5,50 mM NaCl, 3 mM MgCl2, 25 μg/ml BSA). The mixture was incubated in the dark for 1 h at 25°C (PI3Kα and PI3Kδ) or at 30°C (PI3Kβ, PI3Kγ). Next ADP-Glo reagent 1 was added to stop the reaction and remove any remaining ATP. The samples were incubated for 40 min at 25°C. Subsequently the ADP-Glo reagent 2 was added and reactions were incubated for 40 min at 25°C. Finally, luminescence was assessed and the IC50 was calculated.
Sequence of PI3Kα (P42336 whole entry): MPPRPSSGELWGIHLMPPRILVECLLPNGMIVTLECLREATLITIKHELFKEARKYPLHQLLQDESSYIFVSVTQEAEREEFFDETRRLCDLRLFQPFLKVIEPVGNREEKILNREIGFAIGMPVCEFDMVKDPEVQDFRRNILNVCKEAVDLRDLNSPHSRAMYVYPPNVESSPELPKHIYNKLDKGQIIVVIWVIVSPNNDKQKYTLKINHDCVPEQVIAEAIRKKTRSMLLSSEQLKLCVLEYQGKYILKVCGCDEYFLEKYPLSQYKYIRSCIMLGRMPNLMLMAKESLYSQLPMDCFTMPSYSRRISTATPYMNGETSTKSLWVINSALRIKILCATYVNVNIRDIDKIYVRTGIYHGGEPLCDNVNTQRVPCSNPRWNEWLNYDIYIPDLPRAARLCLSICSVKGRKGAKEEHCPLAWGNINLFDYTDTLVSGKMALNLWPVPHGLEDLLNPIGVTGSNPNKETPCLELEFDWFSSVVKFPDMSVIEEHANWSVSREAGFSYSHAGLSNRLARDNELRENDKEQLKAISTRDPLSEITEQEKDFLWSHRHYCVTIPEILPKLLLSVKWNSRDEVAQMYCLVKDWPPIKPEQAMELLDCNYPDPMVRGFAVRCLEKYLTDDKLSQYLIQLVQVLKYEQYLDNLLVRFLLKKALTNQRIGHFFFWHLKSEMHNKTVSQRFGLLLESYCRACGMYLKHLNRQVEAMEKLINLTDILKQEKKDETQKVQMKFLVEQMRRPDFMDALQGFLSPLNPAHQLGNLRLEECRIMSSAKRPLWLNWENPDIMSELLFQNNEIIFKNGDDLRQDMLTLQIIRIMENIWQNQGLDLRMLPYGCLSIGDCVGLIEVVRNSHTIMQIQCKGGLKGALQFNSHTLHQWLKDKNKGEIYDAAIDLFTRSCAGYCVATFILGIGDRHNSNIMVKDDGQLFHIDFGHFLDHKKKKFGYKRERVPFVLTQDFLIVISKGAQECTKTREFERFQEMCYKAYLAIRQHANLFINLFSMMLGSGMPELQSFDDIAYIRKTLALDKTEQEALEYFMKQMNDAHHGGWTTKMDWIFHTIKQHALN
Sequence of PI3Kα (P27986 whole entry partner): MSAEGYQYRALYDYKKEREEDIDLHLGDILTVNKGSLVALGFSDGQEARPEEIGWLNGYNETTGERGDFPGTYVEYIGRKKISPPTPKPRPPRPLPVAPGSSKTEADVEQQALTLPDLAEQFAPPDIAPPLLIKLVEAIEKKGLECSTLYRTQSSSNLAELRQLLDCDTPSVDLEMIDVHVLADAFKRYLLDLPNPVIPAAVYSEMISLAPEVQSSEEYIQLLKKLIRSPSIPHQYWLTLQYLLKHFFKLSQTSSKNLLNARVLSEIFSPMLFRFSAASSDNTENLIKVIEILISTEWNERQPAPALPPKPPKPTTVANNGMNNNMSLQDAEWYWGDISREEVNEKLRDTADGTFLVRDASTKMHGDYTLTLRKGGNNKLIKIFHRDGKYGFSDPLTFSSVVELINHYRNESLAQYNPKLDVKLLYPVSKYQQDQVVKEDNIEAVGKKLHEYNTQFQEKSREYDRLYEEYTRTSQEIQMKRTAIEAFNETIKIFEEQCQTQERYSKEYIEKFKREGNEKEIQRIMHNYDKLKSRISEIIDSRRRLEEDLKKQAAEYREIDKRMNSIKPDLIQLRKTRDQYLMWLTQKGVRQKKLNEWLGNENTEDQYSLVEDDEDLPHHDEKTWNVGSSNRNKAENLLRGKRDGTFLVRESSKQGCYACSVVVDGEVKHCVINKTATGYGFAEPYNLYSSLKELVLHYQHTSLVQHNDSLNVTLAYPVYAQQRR
In general terms: In ADP-Glo the light output rises with the ADP produced.

On to `CC(C)(C)N1CCN(Cc2cc3nc(-c4cncc5[nH]ccc45)cc(N4CCOCC4)n3n2)CC1` [CPL302-253], for which the IC50 is 4.52 µM. Besides, the “Ratio to δ” value (IC50 of isoform α to δ) is listed as 371.

For orientation: IC50 means the point on the concentration scale where inhibition reaches its midpoint.
